Data as given in patent US20100081632A1, “High-content and high throughput assays for identification of lipid-regulating pathways, and novel therapeutic agents for lipid disorders” (Odyssey Thera, Inc., priority 2008, published 2010).

Legend:
[1] = test system: HepG2 cells; experiment: LDL uptake in HepG2 cells (human LDL conjugated to DyLight 549); type: cell-based; conditions: for x-fold increase (hepatic LDL uptake): HepG2
From the text: The assay uses human LDL conjugated to DyLight™ 549 as a fluorescent probe for detection of LDL uptake into HepG2 cells.
We assessED whether compounds that inhibit the PCSK9/LDLr assay would have activity on LDL uptake and metabolism in a relevant cell type. PCSK9 is thought to be a negative regulator of LDLr. Thus, we predicted that compounds inhibiting the PCSK9 PCA signal would increase LDL receptor expression and LDL uptake. An assay using human LDL conjugated to DyLight™ 549 as a fluorescent probe for detection of LDL uptake into cultured human hepatocytes. A separate assay, using an LDL receptor-specific polyclonal antibody and a DyLight™ 488-conjugated secondary antibody, was also performed to localize LDL receptors
Quantitation of the increased LDL uptake of these and other kinase inhibitors targeting Akt, mTOR, p38, GSK3 and VEGF is shown in Table 4.

[2] = test system: PCSK9/LDLR complex; experiment: PCSK9/LDLR protein complementation assay (PCA) in transfected HEK293 cells; type: cell-based, human
Protocol: In one of the embodiments of the invention, the cell-based assay consists of transfected cDNAs encoding full-length PCSK9 and LDL receptor, each sequence linked in-frame to rationally designed fragments of a variant of green fluorescent protein. These two plasmid constructs were co-expressed in human HEK cells plated in 384-well poly-lysine coated plates. After 24-48 hours of incubation, drugs (or vehicle controls) were added to the media, and the existence and localization of PCSK9/LDL receptor complexes was quantified on an Opera automated confocal fluorescence microscopy platform (Perkin Elmer). Images were subjected to automated image analysis, and results quantified and subjected to statistical analysis.
HEK 293T cells were seeded in normal growth media containing DMEM and 10% FBS at 1.5×10^4 in PDL-coated 96-well plates 24 hours prior to transfection. Cells were transfected with 50 ng of each construct DNA per well with Fugene 6, using conditions recommended by the manufacturer. Cells were allowed to express the construct pairs for 24- or 48 h, then the cells were simultaneously fixed and stained with either a 1:300 dilution of Hoescht 33342 (Molecular Probes, Eugene, Oreg.) or a 1:1000 dilution of Draq5 (Biostatus, Shepshed, Leicestershire, U.K.) in 4% formaldehyde for 15 minutes at room temperature. The cells were washed to remove fixative, and overlaid with a small volume of Hank's Buffered Salt Solution. Images were acquired on a Discovery-1 (Molecular Devices) epifluorescence microscope using the 20× objective, and DAPI and FITC filter sets. (with excitation at 350 and 488 nm wave lengths) or on an Opera (Perkin Elmer) confocal microscope using the 20× water objective with the following excitation and emission settings: Ex 488 nm/Em 535 nm (YFP) and Ex 635 nm/Em 640 nm (Draq5).
To test for in vitro PCSK9 function and activity, we developed a protein complementation assay (PCA) with PCSK9-IFP2 and the LDL-IFP1 receptor (PCSK9/LDLR). Expression of wild type PCSK9-IFP2 in transfected HEK293 cells was confirmed by Western blot using an antibody against YFP (FIG. 2). Cotranfection of HEK cells with increasing ratios of PCSK9-IFP2 and LDLR-IFP1 DNA constructs results in increased PCA signal (FIG. 3) but not when each construct is expressed alone. The intracellular localization of the wild-type PCSK9-IFP2/LDLR-IFP1 PCA interaction is similar to the known localization of wild type PCSK9 in the endoplasmic reticulum (ER) and post-ER compartments in various cell types (20, 21). The PCA signal for the PCSK9-IFP2/LDLR-IFP1 pair appears to be localized to multiple intracellular trafficking sites including the ER, endosomes and the cell surface.
In order to test the viability of using the PCSK9-IFP2/LDLR-IFP1 PCA as a drug discovery tool, we tested a drug plate containing 50 known drugs at 3 doses in the assay (Table 10) as well as several protein kinase inhibitors (representative compounds are depicted in Table 11). […] We observed the following effects of known compounds on the PCSK9/LDLR complex:
A collection of small molecular weight compounds was screened. […] To expand on this observation, we characterized the effects of a larger panel of kinase inhibitors on the PCSK9/LDLr complex. 47 compounds representing a broad range of known receptor tyrosine and serine-threonine kinase inhibitors were assessed (table 2). A subset was identified that had inhibitory effects on the PCSK9/LDLr complex (degree of assay inhibition relative to control is indicated by “% control”, Table 2).

COc1cc2ncnc(Nc3cccc(Br)c3)c2cc1OC [PD-153035]
x-fold increase (LDL uptake in Hepg2 cells) ([1]; dose 0.2 μM): 1.3 x-fold | x-fold increase (hepatic LDL uptake) ([1]; dose 0.2 µM): 1.3 x-fold

CNc1cc2c(Nc3cccc(Br)c3)ncnc2cn1 [PD-158780]
x-fold increase (LDL uptake in Hepg2 cells) ([1]; dose 0.3 μM): 1.3 x-fold | x-fold increase (hepatic LDL uptake) ([1]; dose 0.3 µM): 1.3 x-fold

O=C1NC(=O)C(=Cc2ccc(-c3ccc(F)cc3O)o2)S1 [PI3K gamma/CKII inhibitor, (5-(4-Fluoro-2-hydroxyphenyl)furan-2-ylmethylene)thiazolidine-2,4-dione]
% Control (PCSK9/LDLr PCA) ([2]; dose 3 μM): 57% | % Control (PCSK9/LDLr PCA) ([2]; dose 10 μM): 47%

Oc1cccc(-c2nc(N3CCOCC3)c3sccc3n2)c1 [PI 3-K alpha Inhibitor IV, 3-(4-Morpholinothieno[3,2-d]pyrimidin-2-yl)phenol]
% Control (PCSK9/LDLr PCA) ([2]; dose 30 μM): 46%

O=C1C(SCCO)=C(SCCO)C(=O)N1c1ccc(-c2ccccc2)cc1 [PM20]
% Control (PCSK9/LDLr PCA) ([2]; dose 10 μM): 53%

COc1ccnc(C[S+]([O-])c2nc3ccc(OC(F)F)cc3[nH]2)c1OC (centres unmarked) [Pantoprazole]
% Control (PCSK9/LDLr PCA) ([2]; dose 200 μM): 36%

CC[C@H](CO)Nc1nc(NCc2ccccc2)c2ncn(C(C)C)c2n1 [Roscovitine]
% Control (PCSK9/LDLr PCA) ([2]; dose 40 μM): 54%

Oc1ccc(-c2nc(-c3ccc(F)cc3)c(-c3ccncc3)[nH]2)cc1 [SB 202190]
x-fold increase (LDL uptake in Hepg2 cells) ([1]; dose 1 μM): 2.7 x-fold | x-fold increase (hepatic LDL uptake) ([1]; dose 1 µM): 2.7 x-fold

C[S+]([O-])c1ccc(-c2nc(-c3ccc(F)cc3)c(-c3ccncc3)[nH]2)cc1 (centres unmarked) [SB 203580]
x-fold increase (LDL uptake in Hepg2 cells) ([1]; dose 3 μM): 3.0 x-fold | x-fold increase (hepatic LDL uptake) ([1]; dose 3 µM): 3.0 x-fold

O=C1NC(=O)C(c2ccccc2[N+](=O)[O-])=C1Nc1ccc(O)c(Cl)c1 [SB 415286]
x-fold increase (LDL uptake in Hepg2 cells) ([1]; dose 25 μM): 1.6 x-fold | x-fold increase (hepatic LDL uptake) ([1]; dose 25 µM): 1.6 x-fold

CN[C@H]1CC[C@@H](c2ccc(Cl)c(Cl)c2)c2ccccc21 [Sertraline]
% Control (PCSK9/LDLr PCA) ([2]; dose 100 μM): 46%

CN[C@@H]1C[C@H]2O[C@@](C)([C@@H]1OC)n1c3ccccc3c3c4c(c5c6ccccc6n2c5c31)C(=O)NC4 [Staurosporine]
% Control (PCSK9/LDLr PCA) ([2]; dose 1 μM): 34%

CC/C(=C(\c1ccccc1)c1ccc(OCCN(C)C)cc1)c1ccccc1 [Tamoxifen]
% Control (PCSK9/LDLr PCA) ([2]; dose 30 μM): 53%

CC(C)(C)c1ccc(C(O)CCCN2CCC(C(O)(c3ccccc3)c3ccccc3)CC2)cc1 (centres unmarked) [Terfenadine]
% Control (PCSK9/LDLr PCA) ([2]; dose 10 μM): 59%

COC[C@H]1OC(=O)c2coc3c2[C@@]1(C)C1=C(C3=O)[C@@H]2CCC(=O)[C@@]2(C)C[C@H]1OC(C)=O [Wortmannin]
% Control (PCSK9/LDLr PCA) ([2]; dose 1.5 μM): 63%

CO[C@H]1C[C@@H]2CC[C@@H](C)[C@@](O)(O2)C(=O)C(=O)N2CCCC[C@H]2C(=O)O[C@H]([C@H](C)C[C@@H]2CC[C@H](n3cnnn3)[C@H](OC)C2)CC(=O)[C@H](C)/C=C(\C)[C@@H](O)[C@@H](OC)C(=O)[C@H](C)C[C@H](C)/C=C/C=C/C=C/1C [Zotarolimus]
% Control (PCSK9/LDLr PCA) ([2]; dose 10 μM): 37%

B1: Oncostatin M (OSM): regulator of hepatic LDL uptake, purported target Gp130/OSMR/LIFR (protein, UniProt P13725 26-221, looked up)
Oncostatin-M: AAIGSCSKEYRVLLGQLQKQTDLMQDTSRLLDPYIRIQGLDVPKLREHCRERPGAFPSEETLRGLGRRGFLQTLNATLGCVLHRLADLEQRLPKAQDLERSGLNIEDLEKLQMARPNILGLRNNIYCMAQLLDNSDTAEPTKAGRGASQPPTPTPASDAFQRKLEGCRFLHGYHRFMHSVGRVFSKWGESPNRSRR
x-fold increase (hepatic LDL uptake) ([1]; dose 30 ng/ml): 4.2 x-fold
